pIC50: −log10 of the molar value.
Tests used:
[1] = biological target: T1, Serine/threonine-protein kinase STK11 (Homo sapiens) (UniProt Q15831); test: Inhibition of LKB1 in human PC3 cell lysates at 30 uM using desthiobiotin-tagged ATP probe AX9989 followed by trypsinization by LC/MS analysis; settings: PC-3
T1 sequence (whole entry): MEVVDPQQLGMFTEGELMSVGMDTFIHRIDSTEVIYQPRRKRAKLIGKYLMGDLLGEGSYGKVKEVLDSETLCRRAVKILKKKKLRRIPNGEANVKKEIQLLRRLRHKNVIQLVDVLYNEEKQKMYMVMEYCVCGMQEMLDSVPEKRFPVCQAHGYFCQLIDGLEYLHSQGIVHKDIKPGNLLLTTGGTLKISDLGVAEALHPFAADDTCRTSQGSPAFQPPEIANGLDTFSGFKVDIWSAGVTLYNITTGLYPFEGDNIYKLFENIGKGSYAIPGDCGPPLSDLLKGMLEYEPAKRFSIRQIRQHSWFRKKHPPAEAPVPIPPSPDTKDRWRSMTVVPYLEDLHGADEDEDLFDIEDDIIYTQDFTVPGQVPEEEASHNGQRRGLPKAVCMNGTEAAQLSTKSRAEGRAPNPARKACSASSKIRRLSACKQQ

[2] = biological target: Tyrosine-protein kinase CSK (Homo sapiens) (UniProt P41240); test: Inhibition of CSK in human PC3 cell lysates at 10 uM using desthiobiotin-tagged ATP probe AX9989 followed by trypsinization by LC/MS analysis; settings: PC-3
Tyrosine-protein kinase CSK (Homo sapiens), sequence (P41240 2-450 limits assumed): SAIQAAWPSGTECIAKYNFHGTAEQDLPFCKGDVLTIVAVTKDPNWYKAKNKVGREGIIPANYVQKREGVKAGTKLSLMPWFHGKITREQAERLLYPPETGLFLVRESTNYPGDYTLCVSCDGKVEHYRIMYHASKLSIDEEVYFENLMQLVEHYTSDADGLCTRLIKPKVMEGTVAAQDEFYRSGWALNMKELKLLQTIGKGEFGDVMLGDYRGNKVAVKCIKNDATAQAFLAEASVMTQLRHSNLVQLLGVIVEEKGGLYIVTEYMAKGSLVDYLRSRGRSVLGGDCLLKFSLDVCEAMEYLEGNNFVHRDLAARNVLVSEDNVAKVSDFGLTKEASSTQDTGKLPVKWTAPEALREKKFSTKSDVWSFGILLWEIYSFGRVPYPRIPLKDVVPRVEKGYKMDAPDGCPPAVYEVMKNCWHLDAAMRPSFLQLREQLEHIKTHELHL

[3] = biological target: T2, Serine/threonine-protein kinase TAO1 (Homo sapiens) (UniProt Q7L7X3); test: Inhibition of TAO1 in human PC3 cell lysates at 10 uM using desthiobiotin-tagged ATP probe AX9989 followed by trypsinization by LC/MS analysis; settings: PC-3
T2 sequence (whole entry): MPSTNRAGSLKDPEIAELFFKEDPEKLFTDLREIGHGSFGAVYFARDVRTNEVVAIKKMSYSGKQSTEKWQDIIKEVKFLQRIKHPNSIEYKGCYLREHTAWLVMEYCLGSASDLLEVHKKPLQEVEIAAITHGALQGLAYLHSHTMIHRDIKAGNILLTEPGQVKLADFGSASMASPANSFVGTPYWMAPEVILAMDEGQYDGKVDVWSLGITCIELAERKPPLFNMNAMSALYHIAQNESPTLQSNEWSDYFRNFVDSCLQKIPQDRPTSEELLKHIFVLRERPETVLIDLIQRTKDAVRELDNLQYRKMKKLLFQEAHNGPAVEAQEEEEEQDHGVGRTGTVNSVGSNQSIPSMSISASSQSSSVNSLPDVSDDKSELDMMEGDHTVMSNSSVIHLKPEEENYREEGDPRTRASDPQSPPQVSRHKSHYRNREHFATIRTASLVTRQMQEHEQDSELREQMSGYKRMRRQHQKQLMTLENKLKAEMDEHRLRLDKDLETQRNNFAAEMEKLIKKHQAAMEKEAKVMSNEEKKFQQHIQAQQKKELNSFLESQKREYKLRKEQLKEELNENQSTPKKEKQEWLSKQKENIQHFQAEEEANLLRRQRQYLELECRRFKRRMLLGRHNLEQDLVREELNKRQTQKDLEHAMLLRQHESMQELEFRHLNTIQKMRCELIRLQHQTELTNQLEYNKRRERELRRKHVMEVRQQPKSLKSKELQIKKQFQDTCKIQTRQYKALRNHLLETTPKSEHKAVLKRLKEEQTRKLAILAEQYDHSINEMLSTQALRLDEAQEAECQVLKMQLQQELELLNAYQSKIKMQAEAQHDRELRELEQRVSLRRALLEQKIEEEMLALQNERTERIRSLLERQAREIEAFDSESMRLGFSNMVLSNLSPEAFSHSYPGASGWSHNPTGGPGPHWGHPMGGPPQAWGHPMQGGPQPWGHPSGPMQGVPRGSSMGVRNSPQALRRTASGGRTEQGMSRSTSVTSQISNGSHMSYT

[4] = biological target: Microtubule-associated serine/threonine-protein kinase 4 (Homo sapiens) (UniProt O15021); test: Inhibition of MAST4 in human HuH7 cell lysates at 10 uM; settings: Huh-7
Microtubule-associated serine/threonine-protein kinase 4 (Homo sapiens), sequence (O15021 whole entry): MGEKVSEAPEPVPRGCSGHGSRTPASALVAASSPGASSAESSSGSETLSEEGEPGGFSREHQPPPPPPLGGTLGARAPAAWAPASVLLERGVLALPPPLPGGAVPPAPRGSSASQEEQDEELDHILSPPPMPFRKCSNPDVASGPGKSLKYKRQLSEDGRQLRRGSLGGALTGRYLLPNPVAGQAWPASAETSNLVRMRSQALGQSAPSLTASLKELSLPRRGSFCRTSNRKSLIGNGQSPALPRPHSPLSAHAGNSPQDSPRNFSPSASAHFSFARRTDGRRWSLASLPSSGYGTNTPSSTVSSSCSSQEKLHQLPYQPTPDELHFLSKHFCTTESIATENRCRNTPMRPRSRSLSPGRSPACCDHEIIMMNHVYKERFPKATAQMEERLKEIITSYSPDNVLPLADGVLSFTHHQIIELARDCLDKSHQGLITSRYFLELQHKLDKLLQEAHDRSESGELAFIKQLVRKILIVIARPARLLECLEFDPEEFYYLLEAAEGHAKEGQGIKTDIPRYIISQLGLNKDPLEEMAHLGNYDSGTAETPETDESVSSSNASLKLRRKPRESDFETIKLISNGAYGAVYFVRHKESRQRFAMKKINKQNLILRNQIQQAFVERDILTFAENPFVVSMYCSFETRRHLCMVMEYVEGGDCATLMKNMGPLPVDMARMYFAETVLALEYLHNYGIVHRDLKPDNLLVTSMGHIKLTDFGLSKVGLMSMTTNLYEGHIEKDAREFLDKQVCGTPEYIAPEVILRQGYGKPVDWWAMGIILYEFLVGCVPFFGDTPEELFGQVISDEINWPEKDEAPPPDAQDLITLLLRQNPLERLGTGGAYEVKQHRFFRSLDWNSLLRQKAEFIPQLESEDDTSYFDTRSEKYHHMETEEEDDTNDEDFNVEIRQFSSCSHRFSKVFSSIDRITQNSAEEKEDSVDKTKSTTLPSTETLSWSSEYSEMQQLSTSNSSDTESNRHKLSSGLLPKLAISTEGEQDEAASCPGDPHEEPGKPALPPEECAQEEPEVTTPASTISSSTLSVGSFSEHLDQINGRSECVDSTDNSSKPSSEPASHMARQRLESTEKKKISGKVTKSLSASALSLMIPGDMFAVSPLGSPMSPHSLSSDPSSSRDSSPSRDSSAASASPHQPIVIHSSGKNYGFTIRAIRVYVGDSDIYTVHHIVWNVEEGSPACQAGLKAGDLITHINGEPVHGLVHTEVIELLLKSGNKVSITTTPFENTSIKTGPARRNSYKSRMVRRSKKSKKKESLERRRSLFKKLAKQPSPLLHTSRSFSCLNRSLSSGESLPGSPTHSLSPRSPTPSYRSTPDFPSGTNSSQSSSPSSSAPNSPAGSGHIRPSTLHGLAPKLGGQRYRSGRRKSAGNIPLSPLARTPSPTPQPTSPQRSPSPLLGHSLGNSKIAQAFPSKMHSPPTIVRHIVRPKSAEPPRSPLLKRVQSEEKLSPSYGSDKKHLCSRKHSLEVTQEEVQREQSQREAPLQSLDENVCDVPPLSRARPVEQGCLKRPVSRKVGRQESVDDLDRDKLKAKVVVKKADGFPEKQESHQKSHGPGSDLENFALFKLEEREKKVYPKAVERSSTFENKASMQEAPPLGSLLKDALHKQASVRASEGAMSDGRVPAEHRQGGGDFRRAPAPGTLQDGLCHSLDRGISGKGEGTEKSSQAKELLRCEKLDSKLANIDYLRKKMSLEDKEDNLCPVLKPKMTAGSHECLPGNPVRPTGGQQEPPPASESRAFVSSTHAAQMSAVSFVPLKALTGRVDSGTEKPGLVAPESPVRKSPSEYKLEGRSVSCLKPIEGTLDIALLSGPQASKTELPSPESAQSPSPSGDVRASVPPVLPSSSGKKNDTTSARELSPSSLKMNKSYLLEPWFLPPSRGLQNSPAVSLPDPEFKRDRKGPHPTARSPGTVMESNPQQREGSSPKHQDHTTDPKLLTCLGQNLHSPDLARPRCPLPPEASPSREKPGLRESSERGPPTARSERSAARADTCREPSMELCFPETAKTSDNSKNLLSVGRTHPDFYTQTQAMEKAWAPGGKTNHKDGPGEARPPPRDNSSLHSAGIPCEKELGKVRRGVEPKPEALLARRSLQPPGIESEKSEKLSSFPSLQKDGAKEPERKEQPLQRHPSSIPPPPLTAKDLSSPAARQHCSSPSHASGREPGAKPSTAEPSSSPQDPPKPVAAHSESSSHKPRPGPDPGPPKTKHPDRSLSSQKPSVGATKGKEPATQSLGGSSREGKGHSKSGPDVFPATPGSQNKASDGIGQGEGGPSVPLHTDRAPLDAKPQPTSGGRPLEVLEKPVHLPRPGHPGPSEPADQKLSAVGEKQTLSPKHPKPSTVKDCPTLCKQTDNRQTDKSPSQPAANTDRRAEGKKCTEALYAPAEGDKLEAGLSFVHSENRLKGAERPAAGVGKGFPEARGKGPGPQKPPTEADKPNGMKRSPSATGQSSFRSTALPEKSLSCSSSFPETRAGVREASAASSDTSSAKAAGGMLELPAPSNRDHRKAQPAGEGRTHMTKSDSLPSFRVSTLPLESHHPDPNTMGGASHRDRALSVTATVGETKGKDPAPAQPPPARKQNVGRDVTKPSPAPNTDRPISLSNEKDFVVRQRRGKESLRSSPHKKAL

[5] = biological target: T3, Acylglycerol kinase, mitochondrial (Homo sapiens) (UniProt Q53H12); test: Inhibition of AGK in human PC3 cell lysates at 10 uM using desthiobiotin-tagged ATP probe AX9989 followed by trypsinization by LC/MS analysis; settings: PC-3
T3 sequence (whole entry): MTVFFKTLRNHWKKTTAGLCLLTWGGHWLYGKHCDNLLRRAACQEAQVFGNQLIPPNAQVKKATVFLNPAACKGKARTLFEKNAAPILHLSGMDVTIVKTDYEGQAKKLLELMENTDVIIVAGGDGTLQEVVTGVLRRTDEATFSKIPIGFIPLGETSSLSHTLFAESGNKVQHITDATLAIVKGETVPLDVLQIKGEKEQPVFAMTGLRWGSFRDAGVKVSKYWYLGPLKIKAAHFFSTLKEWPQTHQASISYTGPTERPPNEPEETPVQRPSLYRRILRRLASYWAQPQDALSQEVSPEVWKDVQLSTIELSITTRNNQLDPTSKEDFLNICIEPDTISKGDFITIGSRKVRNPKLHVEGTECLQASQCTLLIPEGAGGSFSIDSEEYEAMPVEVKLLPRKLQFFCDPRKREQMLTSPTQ

[6] = biological target: T4, Microtubule-associated serine/threonine-protein kinase 3 (Homo sapiens, UniProt O60307); test: Inhibition of MAST3 in human HuH7 cell lysates at 10 uM; settings: Huh-7
T4 sequence (O60307 whole entry): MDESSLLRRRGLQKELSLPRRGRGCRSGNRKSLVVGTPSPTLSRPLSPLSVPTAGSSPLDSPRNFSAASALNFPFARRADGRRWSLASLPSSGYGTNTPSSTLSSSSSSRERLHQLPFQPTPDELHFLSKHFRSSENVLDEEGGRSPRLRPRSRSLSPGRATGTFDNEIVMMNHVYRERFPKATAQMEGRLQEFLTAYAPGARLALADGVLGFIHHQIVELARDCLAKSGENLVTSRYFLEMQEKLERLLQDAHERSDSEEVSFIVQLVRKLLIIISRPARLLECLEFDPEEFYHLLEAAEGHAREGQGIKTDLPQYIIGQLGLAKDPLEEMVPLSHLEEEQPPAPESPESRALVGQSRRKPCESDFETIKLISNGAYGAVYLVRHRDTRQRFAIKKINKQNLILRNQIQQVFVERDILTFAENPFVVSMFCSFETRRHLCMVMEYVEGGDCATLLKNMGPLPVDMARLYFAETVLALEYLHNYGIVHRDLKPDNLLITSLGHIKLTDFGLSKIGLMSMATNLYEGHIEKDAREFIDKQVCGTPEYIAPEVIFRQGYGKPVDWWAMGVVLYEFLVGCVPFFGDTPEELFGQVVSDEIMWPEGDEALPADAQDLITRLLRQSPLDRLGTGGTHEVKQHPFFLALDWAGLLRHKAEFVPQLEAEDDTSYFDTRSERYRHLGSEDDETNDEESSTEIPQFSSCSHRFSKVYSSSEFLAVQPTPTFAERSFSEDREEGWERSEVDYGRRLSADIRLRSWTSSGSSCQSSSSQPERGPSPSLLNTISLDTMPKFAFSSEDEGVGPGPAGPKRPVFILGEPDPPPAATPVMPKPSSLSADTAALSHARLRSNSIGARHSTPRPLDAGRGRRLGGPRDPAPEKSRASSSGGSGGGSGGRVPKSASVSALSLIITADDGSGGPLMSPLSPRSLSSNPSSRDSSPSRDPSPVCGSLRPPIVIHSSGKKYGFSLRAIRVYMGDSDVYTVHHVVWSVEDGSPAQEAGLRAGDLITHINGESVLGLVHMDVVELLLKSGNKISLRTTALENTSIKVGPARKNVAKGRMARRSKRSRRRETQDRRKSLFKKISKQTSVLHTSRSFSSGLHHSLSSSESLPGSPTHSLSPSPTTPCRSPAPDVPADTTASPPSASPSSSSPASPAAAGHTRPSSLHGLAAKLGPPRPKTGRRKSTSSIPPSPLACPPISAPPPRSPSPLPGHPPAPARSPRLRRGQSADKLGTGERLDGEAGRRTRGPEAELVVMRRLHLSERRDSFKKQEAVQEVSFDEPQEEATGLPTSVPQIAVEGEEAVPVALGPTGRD

[7] = biological target: T5, Mitogen-activated protein kinase kinase kinase 2 (Homo sapiens) (UniProt Q9Y2U5); test: Inhibition of MAP3K2 in human PC3 cell lysates at 10 uM using desthiobiotin-tagged ATP probe AX9989 followed by trypsinization by LC/MS analysis; settings: PC-3
T5 sequence (whole entry): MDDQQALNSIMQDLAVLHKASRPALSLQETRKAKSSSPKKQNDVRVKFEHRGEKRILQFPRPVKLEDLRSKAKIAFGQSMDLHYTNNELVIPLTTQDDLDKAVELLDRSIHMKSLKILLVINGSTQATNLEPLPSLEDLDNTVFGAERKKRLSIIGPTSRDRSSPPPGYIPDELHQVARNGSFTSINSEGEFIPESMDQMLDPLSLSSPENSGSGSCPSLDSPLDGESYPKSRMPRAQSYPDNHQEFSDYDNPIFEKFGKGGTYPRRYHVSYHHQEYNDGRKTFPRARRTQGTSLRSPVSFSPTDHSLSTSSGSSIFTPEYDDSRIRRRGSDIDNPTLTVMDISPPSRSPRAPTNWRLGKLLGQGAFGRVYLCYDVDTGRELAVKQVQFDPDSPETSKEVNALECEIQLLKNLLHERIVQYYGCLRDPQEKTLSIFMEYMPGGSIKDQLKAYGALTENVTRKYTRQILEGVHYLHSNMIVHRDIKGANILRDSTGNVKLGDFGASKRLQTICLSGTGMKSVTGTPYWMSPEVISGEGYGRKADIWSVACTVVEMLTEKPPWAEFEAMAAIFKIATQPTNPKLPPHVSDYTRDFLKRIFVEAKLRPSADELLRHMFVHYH

[8] = biological target: T4, Microtubule-associated serine/threonine-protein kinase 3; test: Inhibition of MAST3 in human HuH7 cell lysates; set-up: species or system Huh-7

Row | inhibition [1] [%] | inhibition [2] [%] | inhibition [3] [%] | inhibition [4] [%] | inhibition [5] [%] | inhibition [6] [%] | inhibition [7] [%] | pIC50 [8] | Structure (SMILES)
1 | 45.6 | – | – | – | – | – | – | – | O[C@H]1CC[C@H](Nc2nc3ccccc3n3ccnc23)CC1
2 | – | < 35 | < 35 | > 88 | < 35 | 97.2 | < 35 | 6.54 | O=C(N[C@H](CO)c1ccccc1)c1ccc2nc(N[C@H]3CC[C@H](O)CC3)c3nccn3c2c1
3 | – | < 35 | < 35 | – | < 35 | – | < 35 | – | CC(C)(NC(=O)c1ccc2nc(N[C@H]3CC[C@H](O)CC3)c3nccn3c2c1)c1ccccc1
4 | – | < 35 | < 35 | – | < 35 | – | < 35 | – | NC(=O)c1ccc2nc(N[C@H]3CC[C@H](O)CC3)c3nccn3c2c1
5 | – | < 35 | < 35 | 75.6 | < 35 | 80.6 | < 35 | 5.62 | CCC[C@@H](NC(=O)c1ccc2nc(N[C@H]3CC[C@H](O)CC3)c3nccn3c2c1)c1ccccc1
6 | – | < 35 | < 35 | 76.1 | < 35 | 90.8 | < 35 | 6.00 | C[C@@H](NC(=O)c1ccc2nc(N[C@H]3CC[C@H](O)CC3)c3nccn3c2c1)c1ccccc1
7 | < 35 | – | – | – | – | – | – | – | c1ccc2c(c1)nc(NC1CCCCC1)c1nccn12
8 | < 35 | – | – | – | – | – | – | – | c1ccc(CNc2nc3ccccc3n3ccnc23)cc1
9 | – | < 35 | < 35 | > 88 | < 35 | 97.7 | < 35 | 6.62 | O=C(NC1(c2ccccc2)CC1)c1ccc2nc(N[C@H]3CC[C@H](O)CC3)c3nccn3c2c1
10 | – | < 35 | < 35 | 79.8 | < 35 | 87.5 | < 35 | 5.85 | CC[C@@H](NC(=O)c1ccc2nc(N[C@H]3CC[C@H](O)CC3)c3nccn3c2c1)c1ccccc1
11 | – | < 35 | < 35 | – | < 35 | – | < 35 | – | O=C(NC1(Cc2ccc(F)cc2)CC1)c1ccc2nc(N[C@H]3CC[C@H](O)CC3)c3nccn3c2c1
12 | – | < 35 | < 35 | – | < 35 | – | < 35 | – | C[C@H](NC(=O)c1ccc2nc(N[C@H]3CC[C@H](O)CC3)c3nccn3c2c1)c1ccccc1
13 | < 35 | – | – | – | – | – | – | – | c1ccc(CCNc2nc3ccccc3n3ccnc23)cc1
14 | – | < 35 | < 35 | – | < 35 | – | < 35 | – | O=C(NC1(c2ccccc2)CCC1)c1ccc2nc(N[C@H]3CC[C@H](O)CC3)c3nccn3c2c1
15 | – | < 35 | < 35 | 78.7 | < 35 | 93.1 | < 35 | 6.13 | O=C(NC1(c2ccc(F)cc2)CC1)c1ccc2nc(N[C@H]3CC[C@H](O)CC3)c3nccn3c2c1
16 | – | < 35 | < 35 | – | < 35 | – | < 35 | – | O=C(O)c1ccc2nc(N[C@H]3CC[C@H](O)CC3)c3nccn3c2c1

Reference: ChEMBL document CHEMBL2417377, “Hit-to-lead optimization and kinase selectivity of imidazo[1,2-a]quinoxalin-4-amine derived JNK1 inhibitors” (Bioorg Med Chem Lett, 2013)
